Patent US12035716B2, “Treatment for seeds disinfection” (VILMORIN & CIE, priority 2013, dated 2024)
Like-named read-outs stand apart in the source and are kept apart here.

Experiments:
cucumber seeds = system: cucumber seeds
Method: CGMMV was tested by ELISA assay according to method 7-026 of the international rules for seed testing annex to chapter 7: seed health testing methods; International Seed Testing Association, Zurich, Switzerland, 2010. The germination test was performed on petri dishes (TOP) at 24 C incubator and root protrusion was counted at 4 days after seeding (TOP at 4 d).

melon seeds = details: vacuum infiltration 0.5%
CGMMV = details: watermelon seeds; vacuum infiltration 0.2% solution, 40 minutes, sinking fraction; 2000 seeds

O=c1nc([O-])n(Cl)c(=O)n1Cl.[Na+] [Na-Dichloroisocyanurate]
% Germination TOP at 4 d (cucumber seeds; seed lot A, VI disinfection 1.5%, heavy fraction): 100%
% Germination TOP at 4 d (cucumber seeds; seed lot A, standard disinfection 2.5%): 100%
% Germination TOP at 4 d (cucumber seeds; seed lot B, VI disinfection 1.5%, heavy fraction): 100%
% Germination TOP at 4 d (cucumber seeds; seed lot B, standard disinfection 2.5%): 100%
Germination (melon seeds; floating fraction, counted at 4 days): 96%
Germination (melon seeds; floating fraction, counted at 7 days): 92%
Germination (melon seeds; heavy fraction, counted at 4 days): 99%
Germination (melon seeds; heavy fraction, counted at 7 days): 99%
CGMMV by ELISA assay (CGMMV): negative
